Measured values from ChEMBL document CHEMBL3399989, “PTP1B inhibitors from stems of Angelica keiskei (Ashitaba)” (Bioorg Med Chem Lett, 2015).
Active and inactive are the calls of the source. No cut-off for these calls is given here.

Assays:
[1] = molecular target: T1, Tyrosine-protein phosphatase non-receptor type 1 (Homo sapiens) (UniProt P18031); experiment: Inhibition of PTP1B (unknown origin) at 20 ug/ml using pNPP substrate measured after 3 mins by colorimetric assay
T1 sequence (whole entry): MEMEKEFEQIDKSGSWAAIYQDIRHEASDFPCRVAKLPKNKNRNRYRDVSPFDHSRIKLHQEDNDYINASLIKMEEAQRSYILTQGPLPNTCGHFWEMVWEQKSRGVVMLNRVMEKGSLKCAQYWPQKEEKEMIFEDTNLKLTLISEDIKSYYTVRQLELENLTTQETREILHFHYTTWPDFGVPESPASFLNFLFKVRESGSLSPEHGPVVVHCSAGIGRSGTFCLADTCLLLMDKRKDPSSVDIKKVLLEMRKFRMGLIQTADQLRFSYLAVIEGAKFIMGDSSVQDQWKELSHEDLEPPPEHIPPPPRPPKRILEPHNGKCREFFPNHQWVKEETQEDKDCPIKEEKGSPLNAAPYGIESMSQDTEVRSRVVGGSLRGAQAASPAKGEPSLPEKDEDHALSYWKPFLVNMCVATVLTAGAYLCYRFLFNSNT

[2] = molecular target: T2, Tyrosine-protein phosphatase non-receptor type 1 (Homo sapiens, UniProt P18031); experiment: Inhibition of PTP1B (unknown origin) using pNPP substrate measured after 3 mins by colorimetric assay
T2 sequence (P18031 whole entry): T1 sequence (whole entry)

[3] = molecular target: T1, Tyrosine-protein phosphatase non-receptor type 1 (Homo sapiens); experiment: Inhibition of PTP1B (unknown origin) using pNPP substrate by colorimetric method based enzyme kinetics assay; details: TDE = time-dependent effect
[4] = molecular target: T1, Tyrosine-protein phosphatase non-receptor type 1 (Homo sapiens); experiment: Competitive inhibition of PTP1B (unknown origin) assessed as unchanged Vmax level at 1.5 to 6 uM using pNPP substrate by colorimetric method based Lineweaver-Burk plot method
[5] = molecular target: T1, Tyrosine-protein phosphatase non-receptor type 1 (Homo sapiens); experiment: Competitive inhibition of PTP1B (unknown origin) assessed as increase in substrate Km at 1.5 to 6 uM using pNPP substrate by colorimetric method based Lineweaver-Burk plot method
[6] = molecular target: T1, Tyrosine-protein phosphatase non-receptor type 1 (Homo sapiens); experiment: Fast-binding inhibition of PTP1B (unknown origin) using pNPP substrate by colorimetric method based enzyme kinetics assay

## COc1ccc(C(=O)/C=C/c2ccc(O)cc2)c2c1C(O)C(C(C)(C)O)O2 (centres undefined)
[1]
  inhibition: < 50%

## CC1(C)Oc2ccc3ccc(=O)oc3c2[C@@H](O)[C@H]1O (relative stereo)
[2]
  IC50: 39.7 µM
[1]
  inhibition: 92.3%

## COc1ccc(C(=O)/C=C/c2ccc(O)cc2)c2c1[C@H](OC)[C@H](O)C(C)(C)O2
[1]
  inhibition: < 50%

## O=c1c(O[C@@H]2OC[C@H](O)[C@H](O)[C@H]2O)c(-c2ccc(O)c(O)c2)oc2cc(O)cc(O)c12
[1]
  inhibition: < 50%

## COc1ccc(C(=O)/C=C/c2ccc(O)cc2)c2c1[C@H](O)[C@H](O)C(C)(C)O2
[1]
  inhibition: < 50%

## O=c1cc(-c2ccc(O)c(O)c2)oc2cc(O[C@@H]3O[C@H](CO)[C@@H](O)[C@H](O)[C@H]3O)cc(O)c12
[1]
  inhibition: < 50%

## C=C(C)C(=O)Cc1c(OC)ccc(C(=O)/C=C/c2ccc(O)cc2)c1O
[3]
  inhibition: tde
[2]
  IC50: 2.33 µM
[4]
  inhibition: Active
[5]
  inhibition: Active
[1]
  inhibition: 85.2%
[6]
  inhibition: Active

## COc1c2ccoc2cc2oc(=O)ccc12 [BERGAPTEN]
[2]
  IC50: 11.7 µM
[1]
  inhibition: 98.4%

## C/C=C(/C)C(=O)O[C@H]1c2c(ccc3ccc(=O)oc23)OC(C)(C)[C@H]1O
[1]
  inhibition: < 50%

## C/C=C(/C)C(=O)O[C@@H]1Cc2c(ccc3ccc(=O)oc23)OC1(C)C [JATAMANSIN]
[2]
  IC50: 35.2 µM
[1]
  inhibition: 93.5%

## COc1ccc(C(=O)/C=C/c2ccc(O)cc2)c(O)c1CC=C(C)C
[2]
  IC50: 7.3 µM
[1]
  inhibition: 86%

## CCOC1c2c(OC)ccc(C(=O)/C=C/c3ccc(O)cc3)c2OC1C(C)(C)O (centres undefined)
[2]
  IC50: 11.1 µM
[1]
  inhibition: 91.9%

## CC(C)=CCC/C(C)=C/Cc1c(O)ccc(C(=O)/C=C/c2ccc(O)cc2)c1O [XANTHOANGELOL]
[2]
  IC50: 5.02 µM
[1]
  inhibition: 79.8%

## C=C(C)C(O)Cc1c(OC)ccc(C(=O)/C=C/c2ccc(O)cc2)c1O (centres undefined) [XANTHOANGELOL D]
[2]
  IC50: 11.2 µM
[1]
  inhibition: 96.8%

## C=C(C)C(Cc1c(OC)ccc(C(=O)/C=C/c2ccc(O)cc2)c1O)OO (centres undefined)
[2]
  IC50: 3.86 µM
[1]
  inhibition: 99.4%

## C[C@@H]1O[C@@H](Oc2c(-c3ccc(O)c(O)c3)oc3cc(O)cc(O)c3c2=O)[C@H](O)[C@H](O)[C@H]1O [QUERCITRIN]
[2]
  IC50: 39 µM
[1]
  inhibition: 64.4%

## O=c1c(O[C@@H]2O[C@H](CO)[C@H](O)[C@H](O)[C@H]2O)c(-c2ccc(O)c(O)c2)oc2cc(O)cc(O)c12
[1]
  inhibition: < 50%

## CC(C)C(=O)O[C@H]1Cc2c(ccc3ccc(=O)oc23)OC1(C)C
[2]
  IC50: 30.3 µM
[1]
  inhibition: 93.7%

## C/C=C(/C)C(=O)O[C@H]1[C@@H](O)c2c(ccc3ccc(=O)oc23)OC1(C)C
[1]
  inhibition: < 50%

## C=C[C@@H](O)C#CC#C[C@@H](O)/C=C\CCCCCCC [FALCARINDIOL]
[2]
  IC50: 31.6 µM
[1]
  inhibition: 97.8%

## COc1ccc(C(=O)/C=C/c2ccc(O)cc2)c(O)c1C/C=C(\C)CCC=C(C)C [XANTHOANGELOL F]
[2]
  IC50: 4.11 µM
[1]
  inhibition: 96.8%

## COc1c2occc2cc2ccc(=O)oc12
[1]
  inhibition: < 50%
